Values quoted from earlier work as cited in US12006297B2, “Antibacterial activity of functionalized dihydropyrimidines” (WiSys Technology Foundation, Inc., priority 2021, dated 2024).

Experiments:
[1] = test system: skin infections
[2] = test system: MRSA; conditions: versus oxacillin and erythromycin
[3] = target: DHFR (Staphylococcus aureus, UniProt P0A017)
Sequence of DHFR (P0A017 whole entry): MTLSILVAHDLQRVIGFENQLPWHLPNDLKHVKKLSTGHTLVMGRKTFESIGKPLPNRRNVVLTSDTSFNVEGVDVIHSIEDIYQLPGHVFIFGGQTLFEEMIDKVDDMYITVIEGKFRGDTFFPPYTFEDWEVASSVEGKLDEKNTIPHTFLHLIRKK

Row | Structure (SMILES) | side effects ([1]; clinical trials) | efficacy versus vancomycin ([1]; control of skin infections, phase 2 and 3 clinical trials) | MRSA growth inhibition compared with approved antibiotics [2] | mechanism of DHFR inhibition [3]
1 | COc1cc(Cc2cnc(N)nc2N)c2c(c1OC)OC(C1CC1)C=C2 (racemic) [Iclaprim] | mild to moderate side effects | non-inferiority | – | –
2 | CCOC(=O)C1=C(CC)NC(N)=NC1c1cc(Cl)cc(Cl)c1O (stereo not shown) [HAK-22, emmacin] | – | – | inhibiting the growth of MRSA at concentrations lower than approved antibiotics | unique allosteric uncompetitive mechanism
